Measured values: patent US8017612B2, “Piperazine compound and use thereof as a HCV polymerase inhibitor” (priority 2006, dated 2011)

How the values were obtained:
[1] = biological target: T1, HCV polymerase (NS5B) type 1b (Hepatitis C virus genotype 1b, UniProt P26663); test: Assay of enzyme (HCV polymerase) inhibitory activity, type 1b enzyme; assay type: biochemical, HCV BK strain (type 1b); conditions: HCV polymerase inhibitory activity (IC50), 1b, type 1b enzyme 0.5 μg/ml, 25° C., 60 min
T1 construct: a region encoding NS5B (J Virol 1991 March, 65(3), 1105-13, 544 amino acids after deletion of 47 amino acids on the C-terminal); 6xHis (C); made in house; host or cells: Escherichia coli
Procedure, shortened: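 His-tagged, C-terminally truncated NS5B (BK strain, 1b; 0.5 μg/ml) incubated with compound 60 min at 25 °C on 3′UTR-derived substrate RNA (5 μg/ml), 50 μM ATP/GTP/CTP, 2 μM UTP plus [3H]UTP, pH 7.5. Acid-precipitated RNA counted; IC50 from radioactivity with and without compound.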

[2] = biological target: T2, HCV polymerase (NS5B) type 1a (Hepatitis C virus genotype 1a, UniProt P26664); test: Assay of enzyme (HCV polymerase) inhibitory activity, type 1a enzyme; assay type: biochemical, HCV type 1a (cloned from the blood of patients); conditions: HCV polymerase inhibitory activity (IC50), 1a, type 1a enzyme 1.5 μg/ml, 25° C., 60 min
T2 construct: made in house; host or cells: Escherichia coli (by the 'similar method' of the 1b enzyme)
Procedure, shortened: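 His-tagged NS5B, C-terminal 47 residues deleted, type 1a at 1.5 μg/ml, with 5 μg/ml HCV 3′UTR substrate RNA, 50 μM ATP/GTP/CTP, 2 μM UTP plus [3H]UTP, pH 7.5 Tris, 5 mM MgCl2; 60 min at 25° C. TCA-precipitated RNA counted by scintillation; IC50 from radioactivity with vs. without compound.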

SMILES | IC50 [1] [µM] | IC50 [2] [µM]
CCCc1ccc(S(=O)(=O)N2CCN(c3cnc(C(=O)O)cn3)C[C@@H]2C(=O)NCc2ccc(CCC)cc2C)cc1 [Example 441, (R)-3-(2-methyl-4-propyl-benzylcarbamoyl)-4-(4-propyl-benzenesulfonyl)-3,4,5,6-tetrahydro-2H-[1,2′]bipyrazinyl-5′-carboxylic acid] | < 0.1 | < 0.1
CCOc1ccc(CNC(=O)[C@H]2CN(c3nc(C)c(C(=O)O)s3)CCN2S(=O)(=O)c2ccc(OC(F)(F)F)cc2)cc1 [Example 442, 2-[(R)-3-(4-ethoxy-benzylcarbamoyl)-4-(4-trifluoromethoxy-benzenesulfonyl)-piperazin-1-yl]-4-methyl-thiazole-5-carboxylic acid] | < 0.1 | 0.1 to 1
CC(C)c1ccc(CNC(=O)[C@H]2CN(c3cnc(C(=O)O)c(N)n3)CCN2S(=O)(=O)c2ccc(C(F)(F)F)cc2)cc1 [Example 443, (R)-6′-amino-3-(4-isopropyl-benzylcarbamoyl)-4-(4-trifluoromethyl-benzenesulfonyl)-3,4,5,6-tetrahydro-2H-[1,2′]bipyrazinyl-5′-carboxylic acid] | < 0.1 | 0.1 to 1
CCCc1ccc(CNC(=O)[C@H]2CN(c3nc(C(F)(F)F)c(C(=O)OCC)s3)CCN2S(=O)(=O)c2ccc(OC(F)(F)F)cc2)cc1 [Example 444, 2-[(R)-3-(4-propyl-benzylcarbamoyl)-4-(4-trifluoromethoxy-benzenesulfonyl)-piperazin-1-yl]-4-trifluoromethyl-thiazole-5-carboxylic acid ethyl ester] | 0.1 to 1 | 0.1 to 1
CC(C)c1ccc(CNC(=O)[C@H]2CN(c3cc(C(=O)O)n(C)n3)CCN2S(=O)(=O)c2ccc(C(F)(F)F)cc2)cc1 [Example 445, 5-[(R)-3-(4-isopropyl-benzylcarbamoyl)-4-(4-trifluoromethyl-benzenesulfonyl)-piperazin-1-yl]-2-methyl-2H-pyrazole-3-carboxylic acid] | < 0.1 | 0.1 to 1
Cc1nc(N2CCN(S(=O)(=O)c3ccc(C(F)(F)F)cc3)[C@@H](C(=O)NCc3ccc(C(C)C)cc3)C2)sc1C(=O)NS(C)(=O)=O [Example 446, (R)-4-(5-methanesulfonylaminocarbonyl-4-methyl-thiazol-2-yl)-1-(4-trifluoromethyl-benzenesulfonyl)-piperazine-2-carboxylic acid 4-isopropyl-benzylamide] | < 0.1 | 0.1 to 1
CCCc1ccc(CNC(=O)[C@H]2CN(c3nc(C)c(C(=O)NS(C)(=O)=O)s3)CCN2S(=O)(=O)c2ccc(OC(F)(F)F)cc2)cc1 [Example 447, (R)-4-(5-methanesulfonylaminocarbonyl-4-methyl-thiazol-2-yl)-1-(4-trifluoromethoxy-benzenesulfonyl)-piperazine-2-carboxylic acid 4-propyl-benzylamide] | < 0.1 | 0.1 to 1
CCC(F)(F)c1ccc(CNC(=O)[C@H]2CN(c3nc(C)c(C(=O)O)s3)CCN2S(=O)(=O)c2ccc(OC(F)(F)F)cc2)cc1 [Example 448, 2-[(R)-3-[4-(1,1-difluoro-propyl)-benzylcarbamoyl]-4-(4-trifluoromethoxy-benzenesulfonyl)-piperazin-1-yl]-4-methyl-thiazole-5-carboxylic acid] | < 0.1 | < 0.1
CCCc1ccc(CNC(=O)[C@H]2CN(c3cnc(C(=O)O)c(C)n3)CCN2S(=O)(=O)c2ccc(OC(F)(F)F)cc2)cc1 [Example 449, (R)-6′-methyl-3-(4-propyl-benzylcarbamoyl)-4-(4-trifluoromethoxy-benzenesulfonyl)-3,4,5,6-tetrahydro-2H-[1,2′]bipyrazinyl-5′-carboxylic acid] | < 0.1 | < 0.1
CCCc1ccc(CNC(=O)[C@H]2CN(C(C)=O)CCN2S(=O)(=O)c2ccc(OC(F)(F)F)cc2)cc1 [Example 450, (R)-4-acetyl-1-(4-trifluoromethoxy-benzenesulfonyl)-piperazine-2-carboxylic acid 4-propyl-benzylamide] | < 0.1 | < 0.1
COCc1ccc(CNC(=O)[C@H]2CN(c3nc(C)c(C(=O)O)s3)CCN2S(=O)(=O)c2ccc(OC(F)(F)F)cc2)cc1 [Example 451, 2-[(R)-3-(4-methoxymethyl-benzylcarbamoyl)-4-(4-trifluoromethoxy-benzenesulfonyl)-piperazin-1-yl]-4-methyl-thiazole-5-carboxylic acid] | < 0.1 | < 0.1
CCCc1ccc(CNC(=O)[C@H]2CN(c3nc(C)c(CO)s3)CCN2S(=O)(=O)c2ccc(OC(F)(F)F)cc2)cc1 [Example 452, (R)-4-(5-hydroxymethyl-4-methyl-thiazol-2-yl)-1-(4-trifluoromethoxy-benzenesulfonyl)-piperazine-2-carboxylic acid 4-propyl-benzylamide] | < 0.1 | < 0.1
CCCc1ccc(CNC(=O)[C@H]2CN(c3nc(C(F)(F)F)c(C(=O)O)s3)CCN2S(=O)(=O)c2ccc(OC(F)(F)F)cc2)cc1 [Example 453, 2-[(R)-3-(4-propyl-benzylcarbamoyl)-4-(4-trifluoromethoxy-benzenesulfonyl)-piperazin-1-yl]-4-trifluoromethyl-thiazole-5-carboxylic acid] | < 0.1 | < 0.1
CCCc1ccc(CNC(=O)[C@H]2CN(c3cc(C)c(O)nn3)CCN2S(=O)(=O)c2ccc(OC(F)(F)F)cc2)cc1 [Example 454, (R)-4-(6-hydroxy-5-methyl-pyridazin-3-yl)-1-(4-trifluoromethoxy-benzenesulfonyl)-piperazine-2-carboxylic acid 4-propyl-benzylamide] | < 0.1 | < 0.1
CCCc1ccc(CNC(=O)[C@H]2CN(C(=O)Cn3nnc(CC(=O)OCC)n3)CCN2S(=O)(=O)c2ccc(OC(F)(F)F)cc2)cc1 [Example 455, (2-{2-oxo-2-[(R)-3-(4-propyl-benzylcarbamoyl)-4-(4-trifluoromethoxy-benzenesulfonyl)-piperazin-1-yl]-ethyl}-2H-tetrazol-5-yl)-acetic acid ethyl ester] | < 0.1 | < 0.1
CCCc1ccc(CNC(=O)[C@H]2CN(C(=O)Cn3nnnc3C)CCN2S(=O)(=O)c2ccc(OC(F)(F)F)cc2)cc1 [Example 456, (R)-4-[2-(5-methyl-tetrazol-1-yl)-acetyl]-1-(4-trifluoromethoxy-benzenesulfonyl)-piperazine-2-carboxylic acid 4-propyl-benzylamide] | < 0.1 | < 0.1
CCCc1ccc(CNC(=O)[C@H]2CN(C(=O)Cn3nnc(C)n3)CCN2S(=O)(=O)c2ccc(OC(F)(F)F)cc2)cc1 [Example 457, (R)-4-[2-(5-methyl-tetrazol-2-yl)-acetyl]-1-(4-trifluoromethoxy-benzenesulfonyl)-piperazine-2-carboxylic acid 4-propyl-benzylamide] | < 0.1 | < 0.1
CCCc1ccc(CNC(=O)[C@H]2CN(c3ccc(N)cn3)CCN2S(=O)(=O)c2ccc(OC(F)(F)F)cc2)cc1 [Example 458, (R)-4-(5-amino-pyridin-2-yl)-1-(4-trifluoromethoxy-benzenesulfonyl)-piperazine-2-carboxylic acid 4-propyl-benzylamide] | < 0.1 | < 0.1
